Series [1] deals with CHIKV 181/25. Description: microbe, parasite or virus in culture. To be noted: Chikungunya virus, Vero.
The next series in a line: in vitro. Particulars: African green monkey.
A further series deals with DENV-4 H241. Particulars: for Therapeutic Index (CC50/EC50): -4 H241.
Another series has as its system DENV-1 PRS41393. Particulars: for Therapeutic Index (CC50/EC50): -1 PRS41393.
Another series concerns JEV 14-14-2. Particulars: for EC50: 0 h.
The subject of the next series is DENV-3 H87. To be noted: for Therapeutic Index (CC50/EC50): -3 H87.
In series [2] the test system is CHIKV 181/25. To be noted: for EC50: 0 h.
Series [3] concerns panel of enveloped viruses (DENV, JEV, YFV, CHIKV and others).
The next series concerns S. aureus (ATCC 25923). To be noted: for MIC in PB: 10 mM potassium phosphate buffer, pH 7.2; for MIC in PBS: phosphate-buffered saline.
Another series concerns VEEV TC-83. To be noted: 0 h.
In the next series the test system is Vero cells. To be noted: African green monkey.
The mark [4] stands for this setting: read-out: EC50 Values for the Indicated Virus.

Like-named read-outs stand apart in the source and are kept apart here. Where a SMILES comes first, the peptide text is derived from it. Where no end group is shown, it is not given here.

A word on the EC50: it is the concentration needed to bring the measured effect to its halfway point.

For the molecule `O=c1cnn([C@@H]2O[C@H](CO)[C@@H](O)[C@H]2O)c(=O)[nH]1` [6-azauridine], the EC50 in the series on CHIKV 181/25 [1] turned out to be 0.29 µM.
Regarding `CC[C@H](C)[C@H](NC(=O)[C@H](Cc1c[nH]c2ccccc12)NC(=O)[C@H](CC(=O)O)NC(=O)[C@H](Cc1c[nH]c2ccccc12)NC(=O)[C@@H](NC(=O)[C@H](CC(=O)O)NC(=O)[C@H](CCCNC(=N)N)NC(=O)[C@H](CC(C)C)NC(=O)[C@H](Cc1c[nH]c2ccccc12)NC(=O)[C@H](CO)NC(=O)CNC(=O)[C@@H](N)CO)C(C)C)C(=O)N[C@@H](CS)C(=O)N[C@H](C(=O)N[C@H](C(=O)N[C@@H](CC(C)C)C(=O)N[C@H](C(=O)N[C@@H](CC(=O)O)C(=O)N[C@@H](Cc1ccccc1)C(=O)N[C@@H](CCCCN)C(=O)N[C@H](C(=O)N[C@@H](Cc1c[nH]c2ccccc12)C(=O)N[C@@H](CC(C)C)C(=O)N[C@@H](CCC(N)=O)C(=O)N[C@@H](CO)C(=O)N[C@@H](CCCCN)C(=O)N[C@@H](CC(C)C)C(=O)O)[C@@H](C)O)[C@@H](C)O)C(C)C)[C@@H](C)O` [AH, reference compound], the “Therapeutic Index (CC50/EC50)” value worked out at 708.11 in the series on DENV-2 New Guinea C (-2 New Guinea C); 36.84 with DENV-4 H241; 49.98 in the series with DENV-1 PRS41393; 5.87 in the series on YFV 17D; 236.04 with JEV 14-14-2; 17.65 with DENV-3 H87. The “Therapeutic Index (CC50/EC50)” value with CHIKV 181/25 [2] was 21.21. A half-maximal response in the series “in vitro” (EC50) required 127 µM. Besides, in the series “in vitro”, the CC50 stood at 192 µM. Moreover, the MHC with human erythrocyte cells was found to be 50 µM.
Consider `Nc1ccn(C[C@@H](CO)OCP(=O)(O)O)c(=O)n1` [Cidofovir], for which the CC50 in “in vitro” was above 375 µM.
On to `CC(C)C[C@H](NC(=O)[C@H](CCCCN)NC(=O)[C@H](CO)NC(=O)[C@H](CCC(N)=O)NC(=O)[C@H](CC(C)C)NC(=O)[C@H](Cc1c[nH]c2ccccc12)NC(=O)[C@@H](NC(=O)[C@H](Cc1c[nH]c2ccccc12)NC(=O)[C@@H](NC(=O)[C@H](CC(=O)O)NC(=O)[C@H](CCCNC(=N)N)NC(=O)[C@H](CC(C)C)NC(=O)[C@H](Cc1c[nH]c2ccccc12)NC(=O)[C@H](CO)NC(=O)CNC(=O)[C@H](CO)NC(=O)CCOCCOCCOCCOCCOCCOCCOCCOCCOCCOCCOCCOCCNC(=O)CCOCCOCCOCCOCCOCCOCCOCCOCCOCCOCCOCCOCCN)C(C)C)[C@@H](C)O)C(N)=O` [TSGX1X] (HELM PEPTIDE1{[NCCOCCOCCOCCOCCOCCOCCOCCOCCOCCOCCOCCOCCC(=O)[*:2]].[O=C(CCOCCOCCOCCOCCOCCOCCOCCOCCOCCOCCOCCOCCN[*:1])[*:2]].S.G.S.W.L.R.D.V.W.T.W.L.Q.S.K.L.[am]}$$$$V2.0), for which the EC50 was 14.3 µM in the series on Marburg virus (MARV); 14.3 µM in the series on Marburg virus (MARV) (setting [4]); 3.86 µM in the series on DENV-2 New Guinea C; 3.54 µM in the series on DENV-4 H241; 4.98 µM with DENV-1 PRS41393; 22.4 µM with YFV 17D. Also, the EC50 in the series with Ebola virus (EBOV) was determined as 13.5 µM; with Ebola virus (EBOV) (setting [4]), 13.5 µM; with JEV 14-14-2, 1.27 µM; in the series with DENV-3 H87 it was 2.28 µM; with CHIKV 181/25 [2], 27.2 µM. Also, the “antiviral activities of pegylated peptides” value in series [3] is on record as “reduced”. The “antiviral activity of pegylated peptides” value in series [3] is given as “preserve strong antiviral activity”. The “efficacy against infection” value in [3] was “effective”.
As to `CC(C)C[C@H](NC(=O)[C@H](CCCCN)NC(=O)[C@H](CO)NC(=O)[C@H](CCC(N)=O)NC(=O)[C@H](CC(C)C)NC(=O)[C@H](Cc1c[nH]c2ccccc12)NC(=O)[C@@H](NC(=O)[C@H](Cc1c[nH]c2ccccc12)NC(=O)[C@@H](NC(=O)[C@H](CC(=O)O)NC(=O)[C@H](CCCNC(=N)N)NC(=O)[C@H](CC(C)C)NC(=O)[C@H](Cc1c[nH]c2ccccc12)NC(=O)[C@H](CO)NC(=O)[C@H](CO)NC(=O)CNC(=O)CCOCCOCCOCCOCCOCCOCCOCCOCCOCCOCCOCCOCCNC(=O)CCOCCOCCOCCOCCOCCOCCOCCOCCOCCOCCOCCOCCN)C(C)C)[C@@H](C)O)C(N)=O` [TSGX2X] (HELM PEPTIDE1{[NCCOCCOCCOCCOCCOCCOCCOCCOCCOCCOCCOCCOCCC(=O)[*:2]].[O=C(CCOCCOCCOCCOCCOCCOCCOCCOCCOCCOCCOCCOCCN[*:1])[*:2]].G.S.S.W.L.R.D.V.W.T.W.L.Q.S.K.L.[am]}$$$$V2.0), the EC50 with Marburg virus (MARV) came to 44.3 µM; with Marburg virus (MARV) (setting [4]) it was 44.3 µM; in the series on Ebola virus (EBOV), 29.9 µM; in the series on Ebola virus (EBOV) (setting [4]), 29.9 µM. In addition, the “antiviral activities of pegylated peptides” value in [3] is given as “reduced”. The “antiviral activity of pegylated peptides” value in series [3] is “preserve strong antiviral activity”. In addition, the “efficacy against infection” value in series [3] is reported as “effective”.
Turning to AGSWLRDILTLLQSAL [TSG009], in the series on S. aureus (ATCC 25923), the “MIC in PB” value was found to be 1.5 µM and the “MIC in PBS” value was 1.5 µM. This molecule yielded an MHC in the series with human erythrocyte cells of 1.5 µM.
Take AGSWLRDIWTWLQSAL [TSG008]: in the series with S. aureus (ATCC 25923), the “MIC in PB” value was 1.5 µM and the “MIC in PBS” value is 1.5 µM. The molecule also gave an MHC in the series with human erythrocyte cells of 1.5 µM.
Take GSSWLRDILTALQSLL [TSG007]: in the series with S. aureus (ATCC 25923), the “MIC in PB” value turned out to be 1.5 µM and the “MIC in PBS” value was 1.5 µM. In the series on human erythrocyte cells, this molecule yielded an MHC of 1.5 µM.
Regarding GSSWLRDIWTALQSWL [TSG006], the “Therapeutic Index (CC50/EC50)” value is 26.04 with DENV-2 New Guinea C (-2 New Guinea C); 11.63 with DENV-4 H241; 12.03 with DENV-1 PRS41393; 22.09 in the series with YFV 17D; 10.71 with JEV 14-14-2; 11.71 in the series with DENV-3 H87. Besides, the “Therapeutic Index (CC50/EC50)” value with CHIKV 181/25 [2] is reported as 5.07. In addition, the CC50 in the series “in vitro” worked out at 14.9 µM. Also, the half-maximal effective concentration (EC50) with DENV-4 H241 (-4 H241, 0 h) came to 2.11 µM; with DENV-1 PRS41393 (-1 PRS41393, 0 h), 1.56 µM; with DENV-3 H87 (-3 H87, 0 h), 1.63 µM. Besides, the “MIC in PB” value against S. aureus (ATCC 25923) was determined as 1.5 µM. The “MIC in PBS” value with S. aureus (ATCC 25923) was determined as 1.5 µM. The molecule also yielded an MHC in the series with human erythrocyte cells of 3 µM.
As for GSSWLRDIWTKLQSWL [TSG005], in the series on S. aureus (ATCC 25923), the “MIC in PB” value came out at 1.5 µM and the “MIC in PBS” value turned out to be 1.5 µM. Besides, the MHC with human erythrocyte cells worked out at 13 µM.
GSSWLRDVWTKLQSWL [TSG004]: the “Therapeutic Index (CC50/EC50)” value with DENV-2 New Guinea C (-2 New Guinea C) was 18.29; in the series on DENV-4 H241, 15.88; with DENV-1 PRS41393, 13.45; with YFV 17D, 14.33; in the series with JEV 14-14-2 it was 24.46; in the series with DENV-3 H87, 18.64. Moreover, in the series with CHIKV 181/25 [2], the “Therapeutic Index (CC50/EC50)” value came to 14.89. Also, the EC50 with DENV-2 New Guinea C (-2 New Guinea C, 0 h) is 8.63 µM; with VEEV TC-83, above 50 µM; in the series on DENV-4 H241 (-4 H241, 0 h), 6.5 µM; in the series with DENV-1 PRS41393 (-1 PRS41393, 0 h), 6.24 µM; in the series with CHIKV 181/25 [2], 9.52 µM. Moreover, the CC50 in “in vitro” is 111 µM; in the series on Vero cells, 114 µM. Besides, the “MIC in PB” value with S. aureus (ATCC 25923) turned out to be 1.5 µM. Also, the “MIC in PBS” value against S. aureus (ATCC 25923) was 1.5 µM. In addition, in the series with human erythrocyte cells, the MHC is 50 µM.
For the molecule GSSWLRDVWTWLQSAL [TSG003], the “Therapeutic Index (CC50/EC50)” value in the series with DENV-2 New Guinea C (-2 New Guinea C) is recorded as 22.33; in the series on DENV-4 H241, 20.23; with DENV-1 PRS41393, 11.46; in the series with YFV 17D, 18.05; in the series on DENV-3 H87, 22.33; in the series with CHIKV 181/25 [2], 17.72. In addition, the CC50 in the series “in vitro” was 24.5 µM; in the series with Vero cells it was 38.6 µM. Besides, the half-maximal effective concentration (EC50) was above 12.5 µM in the series with VEEV TC-83; 6.12 µM in the series with DENV-1 PRS41393 (-1 PRS41393, 0 h); 16.3 µM with JEV 14-14-2. In addition, the “MIC in PB” value with S. aureus (ATCC 25923) was 1.5 µM. The “MIC in PBS” value against S. aureus (ATCC 25923) was found to be 1.5 µM. For the same molecule, the MHC in the series on human erythrocyte cells is 50 µM.
Regarding GSSWLRDVWTWLQSKL [TSG002], the EC50 in the series with Marburg virus (MARV) was 0.922 µM; with DENV-2 New Guinea C (-2 New Guinea C, 0 h) it was 2.74 µM; in the series on VEEV TC-83, above 12.5 µM; with Ebola virus (EBOV), 1.01 µM; in the series on DENV-3 H87 (-3 H87, 0 h), 5.09 µM; in the series on CHIKV 181/25 [2], 3.21 µM. For the same molecule, the “Therapeutic Index (CC50/EC50)” value in the series with DENV-2 New Guinea C (-2 New Guinea C) is given as 9.60; in the series with DENV-4 H241, 8.58; with DENV-1 PRS41393, 10.41; with YFV 17D it was 7.40; in the series with JEV 14-14-2 it was 6.72; in the series on DENV-3 H87 it was 6.09. The “Therapeutic Index (CC50/EC50)” value with CHIKV 181/25 [2] came to 4.73. In the series on S. aureus (ATCC 25923), the “MIC in PB” value was found to be 1.5 µM. Besides, the “MIC in PBS” value against S. aureus (ATCC 25923) is 1.5 µM. In the series with human erythrocyte cells, this molecule gave an MHC of 50 µM. This molecule showed a CC50 in the series on Vero cells of 16.1 µM.
SGSWLRDVWTWLQSKL [TSG001 L-isomer] yielded a CC50 in the series on Vero cells above 20 µM.
For the molecule “SWLRDIWDWICEVLSDFK [C5A, reference compound]”, the “Therapeutic Index (CC50/EC50)” value turned out to be 85.26 in the series on DENV-2 New Guinea C (-2 New Guinea C); 22.13 in the series with DENV-4 H241; 44.60 with DENV-1 PRS41393; 99.97 in the series with YFV 17D; 61.68 with JEV 14-14-2; 15.02 in the series on DENV-3 H87. Also, in the series on CHIKV 181/25 [2], the “Therapeutic Index (CC50/EC50)” value is on record as 9.38. Besides, the EC50 turned out to be 29 µM in the series “in vitro”; 1.65 µM with DENV-4 H241 (-4 H241, 0 h); 3.86 µM in the series with DENV-3 H87 (-3 H87, 0 h). Moreover, the “MIC in PBS” value against S. aureus (ATCC 25923) is above 100 µM. For the same molecule, in the series with human erythrocyte cells, the MHC stood at 13 µM.
